Data from patent US7220775B2, “Compound useful for the treatment of neuropathic pain” (H. Lundbeck A/S, priority 2002, dated 2007).
Read-outs that look alike come from different tables or passages of the source.

How the values were obtained:
human GAL3 receptor = molecular target: T1, human GAL3 receptor (Homo sapiens, UniProt O60755); experiment: Radioligand binding at cloned human GAL3 receptor
T1 construct: expressed in transfected cells
T1 sequence (O60755 1-368): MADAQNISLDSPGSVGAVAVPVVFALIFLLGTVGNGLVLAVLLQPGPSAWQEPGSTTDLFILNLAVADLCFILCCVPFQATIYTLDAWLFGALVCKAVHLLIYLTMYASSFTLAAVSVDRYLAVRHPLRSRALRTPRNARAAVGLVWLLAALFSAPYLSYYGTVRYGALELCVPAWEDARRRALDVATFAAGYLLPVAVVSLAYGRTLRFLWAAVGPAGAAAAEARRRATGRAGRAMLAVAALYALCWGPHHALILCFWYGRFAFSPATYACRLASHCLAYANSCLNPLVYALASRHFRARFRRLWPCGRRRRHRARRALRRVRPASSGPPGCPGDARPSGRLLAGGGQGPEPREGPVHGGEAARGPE
Experimental: (§1) The present invention provides for a method of determining the binding affinity of a GAL3 antagonist, wherein the GAL3 antagonist is dissolved in a “suitable solvent”. A “suitable solvent” means one which permits the measurement of binding affinity of the GAL3 antagonist to the human GAL3 receptor at concentrations less than 1 μM, preferably less than 100 nM. Examples of solvents include, but are not limited to, DMSO, ethanol, N,N-dimethylacetamide, or water. For indolones, the preferred solvent is 3% DMSO (final concentration in the assay). For pyrimidines, the preferred solvent is 1% ethanol/0.09% polypuronic acid F-127 (final concentration in the assay). For any other type of compounds, the preferred solvent is the solvent which permits the measurement of binding affinity of a GAL3 antagonist at the lowest concentration. Once a suitable solvent is ascertained for the binding assay of the human GAL3 receptor, the same solvent is used in assays to determine the binding affinity for instance, at the GAL1 receptor.
(§2) LM(tk−) cells were stably transfected with the human GAL1 or GAL3 receptor. CHO cells were stably transfected with the human GAL2 receptor.
(§3) cDNAs for the human and rat GAL1, and human and rat GAL3 receptors were transfected with a G-418 resistant gene into the mouse fibroblast LM(tk−) cell line by a calcium phosphate transfection method (Cullen, 1987). Stably transfected cells were selected with G-418. Human and rat GAL2 receptors were similarly transfected into CHO cells.
(§4) Membranes were harvested from stably transfected LM(tk−) cells. Adherent cells were washed twice in ice-cold phosphate buffered saline (138 mM NaCl, 8.1 mM Na2HPO4, […] KCl, 1.2 mM KH2PO4, 0.9 mM CaCl2, 0.5 mM MgCl2, pH 7.4) and lysed by sonication in ice-cold sonication buffer (20 mM Tris-HCl, 5 mM EDTA, pH 7.7). […] Protein concentration was measured by the Bradford method (Bradford, 1976) using Pio-Rad Reagent, with bovine serum albumin as a standard. […]
(§5) Binding data were analyzed using nonlinear regression and statistical techniques available in the GraphPAD Prism package (San, Diego, Calif.). […]

human GAL1 receptor = molecular target: T2, human GAL1 receptor (Homo sapiens, UniProt P47211); experiment: Radioligand binding at cloned human GAL1 receptor; conditions: read-out: Ki (nM) GalR1
T2 construct: expressed in transfected cells
T2 sequence (P47211 1-349): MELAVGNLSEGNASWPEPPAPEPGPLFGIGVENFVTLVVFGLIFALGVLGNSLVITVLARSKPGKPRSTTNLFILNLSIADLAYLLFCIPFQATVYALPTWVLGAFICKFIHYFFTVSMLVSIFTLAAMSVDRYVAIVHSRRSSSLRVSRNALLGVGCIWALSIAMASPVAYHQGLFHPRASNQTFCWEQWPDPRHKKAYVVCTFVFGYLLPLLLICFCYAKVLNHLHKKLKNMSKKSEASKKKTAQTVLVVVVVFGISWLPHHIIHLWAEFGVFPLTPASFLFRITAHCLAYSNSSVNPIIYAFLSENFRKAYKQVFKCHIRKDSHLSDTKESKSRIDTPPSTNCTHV
Experimental: as §1, §2, §3
Membranes were harvested from stably transfected LM(tk−) cells. Adherent cells were washed twice in ice-cold phosphate buffered saline (138 mM NaCl, 8.1 mM Na2HPO4, […] KCl, 1.2 mM KH2PO4, 0.9 mM CaCl2, 0.5 mM MgCl2, pH 7.4) and lysed by sonication in ice-cold sonication buffer (20 mM Tris-HCl, 5 mM EDTA, pH 7.7). Large particles and debris were cleared by low speed centrifugation (200×g, 5 min, 4° C.). Membranes were collected from the supernatant fraction by centrifugation (32,000×g, 18 min, 4° C.), washed with ice-cold hypotonic buffer, and collected again by centrifugation (32,000×g, 18 min, 4° C.). The final membrane pellet was resuspended by sonication into a small volume of ice-cold binding buffer (˜1 ml for every 5 plates: 10 mM NaCl, […] HEPES, 0.22 mM KH2PO4, 1.26 mM Cal2, 0.81 mM MgSO4, pH 7.4). Protein concentration was measured by the Bradford method (Bradford, 1976) using Pio-Rad Reagent, with bovine serum albumin as a standard. Membranes were held on ice for up to one hour and used fresh, or flash frozen and stored in liquid nitrogen. Membranes were prepared similarly from CHO cells. […]
as §5

human GAL2 receptor = molecular target: T3, human GAL2 receptor (Homo sapiens, UniProt O43603); experiment: Radioligand binding at cloned human GAL2 receptor; conditions: read-out: Ki (nM) GalR2
T3 construct: expressed in transfected cells
T3 sequence (O43603 1-387): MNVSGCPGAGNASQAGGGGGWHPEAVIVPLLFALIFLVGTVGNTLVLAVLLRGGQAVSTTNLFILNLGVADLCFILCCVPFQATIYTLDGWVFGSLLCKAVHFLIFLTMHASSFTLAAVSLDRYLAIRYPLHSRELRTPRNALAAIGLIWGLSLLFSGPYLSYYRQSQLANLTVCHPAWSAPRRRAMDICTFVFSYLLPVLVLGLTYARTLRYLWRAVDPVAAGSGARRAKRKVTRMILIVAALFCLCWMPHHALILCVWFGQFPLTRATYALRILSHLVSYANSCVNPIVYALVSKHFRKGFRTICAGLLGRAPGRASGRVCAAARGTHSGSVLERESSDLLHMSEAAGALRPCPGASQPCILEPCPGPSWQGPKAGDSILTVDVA
Experimental: as §1, §2, §3, §4, §5

**Q.** For `COc1ccc(N2CCN(c3nc(Nc4ccc(C)cc4)cc(N4CCCCC4)n3)CC2)c(OC)c1` [Example 28], which Ki (human GAL3 receptor; Table 1, pyrimidines, read-out: Ki (nM) GalR3) is on record?
**A.** Its Ki is 270 nM.

**Q.** What about the Ki (human GAL1 receptor; Table 1, pyrimidines) of the same compound?
**A.** Its Ki is > 5000 nM.

**Q.** What about the Ki (human GAL2 receptor; Table 1, pyrimidines) of the same compound?
**A.** The Ki was > 5000 nM.

**Q.** For `CN(C)c1cc(N)nc(N(c2ccccc2)c2ccc(Cl)cc2)n1` [Example 58], which Ki (human GAL3 receptor; Table 2, pyrimidines, read-out: Ki (nM) GalR3) is on record?
**A.** The Ki was 783 nM.

**Q.** And the Ki (human GAL1 receptor; Table 2, pyrimidines)?
**A.** Its Ki is > 5000 nM.

**Q.** What about the Ki (human GAL2 receptor; Table 2, pyrimidines) of the same compound?
**A.** Its Ki is > 5000 nM.

**Q.** With `CN(C)c1cc(NC2C3CC4CC(C3)CC2C4)nc(N2CCN(Cc3ccccc3)CC2)n1` (stereo not shown) [Example 137] as the compound, how does the Ki (human GAL3 receptor; Table 3a, pyrimidines, read-out: Ki (nM) Gal3) read?
**A.** Its Ki is 124 nM.
